Experimental data reported in patent publication US11420975B2, “Substituted imidazo[1,5-a]pyrazines as Bruton's tyrosine kinase inhibitors” (TRANSTHERA SCIENCES (NANJING), INC., priority 2018, dated 2022).

How the values were obtained:
BTK(C481S) = BTK(C481S) (Homo sapiens (Human), UniProt Q06187, C481S); assay: In vitro inhibitory activity against BTK(C481S) enzyme (33P-ATP filter binding); format: biochemical; settings: class symbols; read-out: IC50 BTK(C48IS)
Protocol: (§1) The substrate solution was prepared by adding the substrate poly(Glu, Tyr) sodium salt (Sigma Aldrich, St. Louis, Mo.) to the substrate reaction buffer (20 mM Hepes (pH 7.5), 10 mM MgCl2, 1 mM EGTA, 0.02% Brij35, 0.02 mg/mL BSA, 0.1 mM Na3VO4, 2 mM DTT and 1% DMSO) (final substrate concentration in the reaction solution was 0.2 μM). Test compound was formulated into stock solutions at 10 mM concentration with 100% DMSO, and 3-fold serial dilution for 10 doses was performed in a 384-well cyclic olefin copolymer LDV microplate. […] Test compound in 100% DMSO was then added to the kinase reaction mixture by acoustic liquid transfer technology (Echo 550; nanoliter range) (Labcyte Inc, Sunnyvale, Calif.) and incubated for 20 min at room temperature. 33P-ATP (specific activity 10 μCi/μL) was added to the reaction mixture to initiate the reaction, followed by incubation at room temperature for 2 h. A small portion of the reaction mixture was dropped onto P-81 ion exchange filter paper (Whatman). After washing the unbound phosphate from the filter paper with 0.75% phosphate buffer (three times) and drying, the remaining radioactivity on the filter paper was measured. The kinase activity was expressed as the percentage of the remaining kinase activity in the test sample to the kinase activity in the vehicle (dimethyl sulfoxide) blank control. IC50 values were calculated by curve fitting the data obtained using Prism (GraphPad Software).

[1] = Pharmacokinetic study in male SD rats, intragastric; format: in vivo; settings: rat, 5 mg/kg
Protocol: Male SD rats were fasted overnight before test. The test drugs were each suspended in a solution of 0.5% methylcellulose (MC) and 0.1% SDS in deionized water (w/w/v), and the suspension, each at a concentration of 1 mg/mL, was administered intragastrically at 5 mL/kg. At 15 min, 30 min, 1 h, 2 h, 4 h, 6 h, 8 h and 24 h after administration, approximately 0.4 mL of whole blood was collected from the orbital venous plexus of the animals and then placed in heparin anticoagulant tubes. Three animals were sampled at each time point and then put to death, and thus sample collection was completed on different individuals. The whole blood sample would be centrifuged within 15 min and centrifuged at 4° C./4200 rpm for 5 min. All plasma samples were stored in a refrigerator at −80±15° C. prior to analysis. An LC-MS/MS (Waters I Class UPLC-Xevo TQD tandem mass spectrometry) assay for the compounds was established prior to sample analysis. The collected plasma was quantitatively analyzed, plasma concentration-time data of animals were analyzed using WinNonlin (professional edition, version 5.2) software, a non-compartmental model was used for concentration analysis, and the pharmacokinetic parameters of the test compounds were calculated.

OCI-LY10 = assay: In vitro tumor cell proliferation inhibition, OCI-LY10 (CellTiter-Glo); format: cell-based; settings: Homo sapiens; OCI-LY10 cells, 72 h
Protocol: (1) Method • The tumor cell line (TMD-8/OCY-LY10) was suspended in RPMI1640+FBS10% and cultured in an incubator (37° C., 5% CO2). Cells were passaged periodically, and cells at logarithmic growth phase were collected for plating. • Cell staining was performed with trypan blue and viable cells were counted. • Cell concentration was adjusted to 7000 cells/well with medium. • 90 μL of cell suspension was added to a 96-well plate and cell-free culture medium was added to the blank control wells. • Cells in the 96-well plate were incubated overnight in an incubator (37° C., 5% CO2, 100% relative humidity). • Preparation of 400× compound storage plates: test compounds and reference drug were each dissolved in DMSO and 3× diluted from the highest concentration (400 μM) to the lowest concentration (0.61 μM). • Preparation of 10× compound working solutions: 78 μL of cell culture medium was added to a V-bottom 96-well plate, and 2 μL of the compound was pipetted from the 400× compound storage plate into the 96-well plate. Vehicle control wells and blank control wells were added with 2 μL of DMSO. […] Inhibition rates of compounds at different concentrations were calculated in Excel, followed by plotting the inhibition curves and calculating IC50 values with GraphPad Prism.

[2] = Pharmacokinetic study in male beagle dogs, intragastric; format: in vivo; settings: dog, 5 mg/kg
Protocol: Three adult male beagle dogs were fasted overnight before test. The test drugs were each suspended in a solution of 0.5% methylcellulose (MC) and 0.1% SDS in deionized water (w/w/v), and the suspension, each at a concentration of 1 mg/mL, was administered intragastrically at 5 mL/kg. Blood was collected 15 min, 30 min, 1 h, 2 h, 4 h, 6 h, 8 h and 24 h after administration. Animals were lightly anesthetized with chloral hydrate, and approximately 0.5 mL of whole blood was collected from the forelimb vein using a glass blood collection tube and placed in a heparin anticoagulant tube. The sample was centrifuged at 4° C./4200 rpm for 5 min. All plasma samples were stored in a refrigerator at −80±15° C. prior to analysis. An LC-MS/MS (Waters I Class UPLC-Xevo TQD tandem mass spectrometry) assay for the compounds was established prior to sample analysis. The collected plasma was quantitatively analyzed, plasma concentration-time data of animals were analyzed using WinNonlin (professional edition, version 5.2) software, a non-compartmental model was used for concentration analysis, and the pharmacokinetic parameters of the test compounds were calculated.

BTK(wt) = BTK(wt) (Homo sapiens (Human), UniProt Q06187); assay: In vitro inhibitory activity against BTK(wt) enzyme (33P-ATP filter binding); format: biochemical; settings: class symbols
Protocol: as §1

Sequence of BTK(wt) (Q06187 whole entry): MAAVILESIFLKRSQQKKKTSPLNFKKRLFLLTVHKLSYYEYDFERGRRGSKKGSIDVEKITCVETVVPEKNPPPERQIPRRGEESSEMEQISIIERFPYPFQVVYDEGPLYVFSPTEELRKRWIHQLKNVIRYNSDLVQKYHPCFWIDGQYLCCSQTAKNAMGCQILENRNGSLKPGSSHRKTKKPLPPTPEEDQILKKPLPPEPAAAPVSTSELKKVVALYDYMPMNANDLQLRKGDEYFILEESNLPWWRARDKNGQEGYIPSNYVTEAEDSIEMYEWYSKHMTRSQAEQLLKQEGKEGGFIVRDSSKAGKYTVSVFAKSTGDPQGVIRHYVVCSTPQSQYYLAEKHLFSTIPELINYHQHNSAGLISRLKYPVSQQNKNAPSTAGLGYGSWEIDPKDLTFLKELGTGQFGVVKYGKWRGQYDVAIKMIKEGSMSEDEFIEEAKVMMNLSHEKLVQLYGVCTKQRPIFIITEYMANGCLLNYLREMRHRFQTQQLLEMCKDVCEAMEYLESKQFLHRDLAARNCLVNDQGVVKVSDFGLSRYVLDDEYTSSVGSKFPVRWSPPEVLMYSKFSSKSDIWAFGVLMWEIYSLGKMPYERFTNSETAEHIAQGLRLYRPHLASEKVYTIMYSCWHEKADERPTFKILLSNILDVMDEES
Sequence of BTK(C481S) (Q06187 whole entry C481S): as the sequence (Q06187 whole entry) above, with C481S counted along it

Work on `Nc1nccn2c(C34CCC(NC(=O)CN5CCOCC5)(CC3)C4)nc(-c3ccc(C(=O)Nc4cc(C(F)(F)F)ccn4)cc3)c12` [Compound A-10-10, 4-(8-amino-3-(4-(2-morpholinoacetamido)bicyclo[2.2.1]heptan-1-yl)imidazo[1,5-a]pyrazin-1-yl)-N-(4-(trifluoromethyl)pyridin-2-yl)benzamide] yielded an IC50 (BTK(C481S)) of no more than 0.1 nM, an AUC(0-inf) ([1]; male, SD, plasma, po) of 73300 ng·h/mL and a Tmax ([1]; male, SD, plasma, po) of 2 h. The half-life ([1]; male, SD, plasma, po) was 3.74 h, the Cmax ([1]; male, SD, plasma, po, p.o., read-out: Cmax) was 8320 ng/mL and the AUC0-INF ([1]; p.o.) was 73318 ng·h/mL. The Cmax ([1]; p.o.) was 8323 ng/mL, the IC50 (OCI-LY10) was 10.3 nM and the AUC0-INF ([2]; p.o.) was 14867 ng·h/mL. For the same compound, the Cmax ([2]; p.o.) was 641 ng/mL, the AUC(0-inf) ([2]; male, beagle, plasma, po) was 14900 ng·h/mL and the Tmax ([2]; male, beagle, plasma, po) was 8 h. The half-life ([2]; male, beagle, plasma, po) was 14.2 h, the Cmax ([2]; male, beagle, plasma, po, p.o., read-out: Cmax) was 641 ng/mL and the IC50 (BTK(wt)) was 1 to 10 nM.
